# From ChEMBL document CHEMBL1201862, “PubChem BioAssay data set” (2004)
#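 Assay format: 96-well plates, 48-hour exposure. GI50 = concentration required for 50% inhibition of growth.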 Active and inactive are the calls of the source. Rule as the data show it: active = GI50 up to about 1.1 µM and inactive = higher.
# Columns and labels:
# Test in all cases: growth of human tumour cells (NCI), 48 h
# [1] = system: KM12
# [2] = system: MDA-MB-435
# [3] = system: EKVX
# [4] = system: SF-295
# [5] = system: MCF7
# [6] = system: NCI-H522
# [7] = system: COLO 205
# [8] = system: PC-3
# [9] = system: OVCAR-5
# [10] = system: NCI-H23
# [11] = system: NCI/ADR-RES
# [12] = system: Hs-578T
# [13] = system: M14
# [14] = system: 786-0
# [15] = system: UACC-257
# [16] = system: SN12C
# [17] = system: SF-268
# [18] = system: MDA-N
# [19] = system: OVCAR-4
# [20] = system: Malme-3M
# [21] = system: HCT-116
# [22] = system: NCI-H226
# [23] = system: HCT-15
# [24] = system: SW-620
# [25] = system: A549
# [26] = system: SNB-19
# [27] = system: ACHN
# [28] = system: U-251
# [29] = system: SK-OV-3
# [30] = system: SNB-75
# [31] = system: T47D
# [32] = system: A498
# [33] = system: OVCAR-3
# [34] = system: IGROV-1
# [35] = system: RPMI-8226
# [36] = system: HOP-92
# [37] = system: OVCAR-8
# [38] = system: K562
# [39] = system: SK-MEL-28
# [40] = system: MDA-MB-231
# [41] = system: SK-MEL-5
# [42] = system: UO-31
# [43] = system: CAKI-1
# [44] = system: NCI-H460
# [45] = system: RXF 393
# [46] = system: HOP-62
# [47] = system: SF-539
# [48] = system: LOX IMVI
# [49] = system: MOLT-4
# [50] = system: DU-145
# [51] = system: HT-29
# [52] = system: SK-MEL-2
# [53] = system: HL-60
# [54] = system: SR
# [55] = system: CCRF-CEM
# [56] = system: HCC 2998
# [57] = system: TK-10
# [58] = system: UACC-62
# [59] = system: BT-549
compound,measurement,setting,value
c1ccc2c(c1)c1c3c(c4c(n32)=NCCN4)CCC1,GI50,[1],27 µM (inactive)
same,GI50,[2],29.7 µM (inactive)
same,GI50,[3],20.9 µM (inactive)
same,GI50,[4],26.9 µM (inactive)
same,GI50,[5],24.8 µM (inactive)
same,GI50,[6],20.7 µM (inactive)
same,GI50,[7],28.1 µM (inactive)
same,GI50,[8],26.6 µM (inactive)
same,GI50,[9],36.3 µM (inactive)
same,GI50,[10],31.6 µM (inactive)
same,GI50,[11],27.9 µM (inactive)
same,GI50,[12],26.5 µM (inactive)
same,GI50,[13],44.3 µM (inactive)
same,GI50,[14],28.1 µM (inactive)
same,GI50,[15],38.1 µM (inactive)
same,GI50,[16],18.5 µM (inactive)
same,GI50,[17],31.6 µM (inactive)
same,GI50,[18],20.7 µM (inactive)
same,GI50,[19],42.5 µM (inactive)
same,GI50,[20],31.6 µM (inactive)
same,GI50,[21],30.5 µM (inactive)
same,GI50,[22],19.2 µM (inactive)
same,GI50,[23],15.2 µM
same,GI50,[24],28.5 µM (inactive)
same,GI50,[25],48.5 µM (inactive)
same,GI50,[26],89.9 µM (inactive)
same,GI50,[27],40.9 µM (inactive)
same,GI50,[28],33.8 µM (inactive)
same,GI50,[29],37.1 µM (inactive)
same,GI50,[30],21.7 µM (inactive)
same,GI50,[31],20.7 µM (inactive)
same,GI50,[32],28 µM (inactive)
same,GI50,[33],34.8 µM (inactive)
same,GI50,[34],27.4 µM (inactive)
same,GI50,[35],24.3 µM (inactive)
same,GI50,[36],25.6 µM (inactive)
same,GI50,[37],39.6 µM (inactive)
same,GI50,[38],27.6 µM (inactive)
same,GI50,[39],55.3 µM (inactive)
same,GI50,[40],24.2 µM (inactive)
same,GI50,[41],32.4 µM (inactive)
same,GI50,[42],45.2 µM (inactive)
same,GI50,[43],40.8 µM (inactive)
same,GI50,[44],34.7 µM (inactive)
same,GI50,[45],17.9 µM (inactive)
same,GI50,[46],36.1 µM (inactive)
same,GI50,[47],46.1 µM (inactive)
same,GI50,[48],21.1 µM (inactive)
same,GI50,[49],21.3 µM (inactive)
same,GI50,[50],55.3 µM (inactive)
same,GI50,[51],20.8 µM (inactive)
same,GI50,[52],23.3 µM (inactive)
same,GI50,[53],44.4 µM (inactive)
same,GI50,[54],17.4 µM (inactive)
same,GI50,[55],53.1 µM (inactive)
same,GI50,[56],33.6 µM (inactive)
same,GI50,[57],59.7 µM (inactive)
same,GI50,[58],30.1 µM (inactive)
same,GI50,[59],32.1 µM (inactive)
C(=C\c1ccccc1)/C=N/c1nc2cc3sc(/N=C/C=C/c4ccccc4)nc3cc2s1,GI50,[1],76.2 µM (inactive)
same,GI50,[2],> 100 µM (inactive)
same,GI50,[3],73.1 µM (inactive)
same,GI50,[4],> 78 µM (inactive)
same,GI50,[5],12.6 µM (inactive)
same,GI50,[6],18.2 µM (inactive)
same,GI50,[7],1.06 µM (active)
same,GI50,[8],> 79.8 µM (inactive)
same,GI50,[9],> 78.7 µM (inactive)
same,GI50,[10],42.2 µM (inactive)
same,GI50,[11],> 100 µM (inactive)
same,GI50,[12],> 100 µM (inactive)
same,GI50,[13],> 100 µM (inactive)
same,GI50,[14],> 100 µM (inactive)
same,GI50,[15],> 100 µM (inactive)
same,GI50,[16],69.2 µM (inactive)
same,GI50,[17],> 63.4 µM (inactive)
same,GI50,[18],> 72.1 µM (inactive)
same,GI50,[19],> 100 µM (inactive)
same,GI50,[20],> 100 µM (inactive)
same,GI50,[21],28.5 µM (inactive)
same,GI50,[22],0.813 µM (active)
same,GI50,[23],33.7 µM
same,GI50,[24],> 45.3 µM (inactive)
same,GI50,[25],12.1 µM (inactive)
same,GI50,[26],> 100 µM (inactive)
same,GI50,[27],> 55.8 µM (inactive)
same,GI50,[28],25 µM (inactive)
same,GI50,[29],> 100 µM (inactive)
same,GI50,[30],> 100 µM (inactive)
same,GI50,[31],47 µM (inactive)
same,GI50,[32],> 42.5 µM (inactive)
same,GI50,[33],24.3 µM (inactive)
same,GI50,[34],> 63.2 µM (inactive)
same,GI50,[35],> 87.7 µM (inactive)
same,GI50,[36],> 100 µM (inactive)
same,GI50,[37],> 92.3 µM (inactive)
same,GI50,[38],43.3 µM (inactive)
same,GI50,[39],> 100 µM (inactive)
same,GI50,[40],> 100 µM (inactive)
same,GI50,[41],> 28.9 µM (inactive)
same,GI50,[42],34.4 µM (inactive)
same,GI50,[43],70.6 µM (inactive)
same,GI50,[44],4.16 µM (inactive)
same,GI50,[45],> 100 µM (inactive)
same,GI50,[46],99.3 µM (inactive)
same,GI50,[47],> 100 µM (inactive)
same,GI50,[48],29.9 µM (inactive)
same,GI50,[49],7.35 µM (inactive)
same,GI50,[50],> 100 µM (inactive)
same,GI50,[51],30.6 µM (inactive)
same,GI50,[52],> 100 µM (inactive)
same,GI50,[53],12.1 µM (inactive)
same,GI50,[54],2.95 µM (inactive)
same,GI50,[55],8.47 µM (inactive)
same,GI50,[56],> 100 µM (inactive)
same,GI50,[57],> 88.9 µM (inactive)
same,GI50,[58],99.8 µM (inactive)
same,GI50,[59],> 96.2 µM (inactive)
